The source of these data is publication PMC3093256, “Synthesis of 1-Substituted Carbazolyl-1,2,3,4-tetrahydro- and Carbazolyl-3,4-dihydro-β-carboline Analogs as Potential Antitumor Agents” (Marine Drugs, 2011).

Values after ≈ are worked out from the molar mass of the structure shown.

Data set [1] has as its system Hepa (human hepatoma). As to the kind of experiment: Cytotoxicity assay, Hepa cells. The note with it: 72 h, 3 days incubation, by interpolation. The data set is classed as cell-based. Here is the method: (§1) The cytotoxic activities of compounds against KB (human mouth epidermoid carcinoma), DLD (human colon adenocarcinoma), NCI-H661 (human lung large cell carcinoma), Hepa (human hepatoma), and HepG2/A2 (human hepatoblastoma) cells were assayed by the […] assay as previously described. The cells for assay were cultured in RPMI-1640 medium supplemented with […] in an incubator at 37 °C. The cytotoxicity assay depends on the binding of methylene blue to fixed monolayers of cells at pH 8.5, washing the monolayer, and releasing the dye by lowering the pH value. Samples and control standard drugs were prepared at a concentration of 1, 10, 40, and 100 μg/mL. After seeding 2880 cells/well in a 96-well microplate for 3 h, 20 μL of sample or standard agent was placed in each well and incubated at 37 °C for 3 days. After removing the medium from the microplates, the cells were fixed with 10% formaldehyde in 0.9% saline for 30 min, then dyed with 1% (w/v) methylene blue in 0.01 M borate-buffer (100 μL/well) for 30 min. The 96-well plate was dipped into a 0.01 M borate-buffer solution four times in order to remove the dye. Then, 100 μL/well of EtOH-0.1 M HCl (1:1) was added as a dye eluting solvent, and the absorbance was measured on a microtiter plate reader (Dynatech, MR 7000) at a wavelength of 650 nm. […] Doxorubicin was used as a standard compound.

Data set [2] deals with T1, human DNA topoisomerase II (Homo sapiens, UniProt P11388).
T1 construct: purchased TopoGen
T1 sequence (P11388 whole entry): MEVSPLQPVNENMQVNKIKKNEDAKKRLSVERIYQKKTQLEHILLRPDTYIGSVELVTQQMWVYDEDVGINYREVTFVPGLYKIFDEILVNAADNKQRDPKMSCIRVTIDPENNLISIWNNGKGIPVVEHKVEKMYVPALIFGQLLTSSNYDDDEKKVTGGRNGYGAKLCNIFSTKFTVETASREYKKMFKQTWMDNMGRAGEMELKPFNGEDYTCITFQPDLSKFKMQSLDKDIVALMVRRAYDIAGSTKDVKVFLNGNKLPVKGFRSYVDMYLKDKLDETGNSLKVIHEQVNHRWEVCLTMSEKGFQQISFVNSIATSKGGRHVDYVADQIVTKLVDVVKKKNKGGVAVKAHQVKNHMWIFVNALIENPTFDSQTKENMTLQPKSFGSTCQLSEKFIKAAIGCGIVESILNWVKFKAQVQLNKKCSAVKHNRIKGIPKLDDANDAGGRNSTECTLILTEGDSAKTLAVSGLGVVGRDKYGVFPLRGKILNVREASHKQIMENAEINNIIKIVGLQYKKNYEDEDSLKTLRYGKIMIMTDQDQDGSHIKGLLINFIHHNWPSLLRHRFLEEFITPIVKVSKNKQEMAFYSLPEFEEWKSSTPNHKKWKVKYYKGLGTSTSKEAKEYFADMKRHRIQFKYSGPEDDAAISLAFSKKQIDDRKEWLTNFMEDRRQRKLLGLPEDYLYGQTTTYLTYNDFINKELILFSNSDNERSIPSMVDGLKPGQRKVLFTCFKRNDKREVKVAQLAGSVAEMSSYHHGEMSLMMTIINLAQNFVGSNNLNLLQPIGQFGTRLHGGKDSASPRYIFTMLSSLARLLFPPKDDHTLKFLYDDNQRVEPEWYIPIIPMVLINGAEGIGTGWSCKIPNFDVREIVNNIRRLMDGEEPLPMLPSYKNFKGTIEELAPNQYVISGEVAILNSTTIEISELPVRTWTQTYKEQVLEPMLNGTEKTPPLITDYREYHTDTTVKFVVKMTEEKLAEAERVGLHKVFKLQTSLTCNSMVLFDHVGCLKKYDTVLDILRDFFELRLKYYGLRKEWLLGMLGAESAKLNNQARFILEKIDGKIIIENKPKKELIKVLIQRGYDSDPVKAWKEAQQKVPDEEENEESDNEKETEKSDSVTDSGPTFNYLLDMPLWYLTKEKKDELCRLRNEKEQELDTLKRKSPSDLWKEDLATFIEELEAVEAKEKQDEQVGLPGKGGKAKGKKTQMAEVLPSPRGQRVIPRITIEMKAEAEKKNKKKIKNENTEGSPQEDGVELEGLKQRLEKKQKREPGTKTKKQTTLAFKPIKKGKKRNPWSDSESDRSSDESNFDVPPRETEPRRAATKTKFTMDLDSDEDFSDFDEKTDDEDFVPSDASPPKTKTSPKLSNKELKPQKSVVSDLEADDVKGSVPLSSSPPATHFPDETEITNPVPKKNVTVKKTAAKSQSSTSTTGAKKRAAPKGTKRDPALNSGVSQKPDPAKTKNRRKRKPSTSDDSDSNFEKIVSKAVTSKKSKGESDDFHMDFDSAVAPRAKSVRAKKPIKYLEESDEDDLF
As to the kind of experiment: Relaxation assay of topoisomerase II (supercoiled pBR322). It counts as biochemical. The note with it: for IC50: five concentrations 5, 10, 25, 50 and 100 μg/mL, read-out: Inhibition of DNA topoisomerase II IC50 (converted). Here is the method:
(§2) Topoisomerases I and II (topo I and II) assays were measured by assessing relaxation of supercoiled pBR322 plasmid DNA according to [24]. […] In summary, topo I (TopoGen) was mixed with the test sample and 10° volume of assay buffer (100 mM Tris-HCl, 10 mM EDTA, 1.5 M NACl, 1.0% BSA, […], and 50% glycerol), and then supercoiled DNA (pBR322) was added. In topo II assay, the mixture contained test sample and buffer including 50 mM Tris-HCl, 120 mM KCl, 10 mM MgCl2, 0.5 mM ATP, 0.5 mM dithiothreitol, 2 μg BSA, pBR322 plasmid DNA (0.25 μg), and 3U of topo II (TopoGen) in final volume of 20 μL. After incubation of topo I or topo II mixture for 30 min at 37 °C, 2 λ 10% SDS and 2.5 λ proteinase K were added for 1 h. The reaction mixtures were electrophoresed on a 2% agarose gel (50 V, 20 min; 100 V, 30 min; 110 V, 30 min) and stained with ethidium bromide. Finally, by a densitometer of ImageMaster® (Fujifilm thermal imaging system, FTI-500), the gels were directly scanned and the area representing supercoiled DNA was calculated.

Data set [3] deals with HepG2/A2 (human hepatoma). As to the kind of experiment: Cytotoxicity assay, HepG2/A2 cells. It counts as cell-based. The following applies: Homo sapiens, 72 h; HepG2/A2 cells, 3 days incubation, by interpolation. Here is the method:
as §1

Data set [4] concerns the target T2, human DNA topoisomerase I (Homo sapiens, UniProt P11387).
T2 construct: purchased TopoGen
T2 sequence (P11387 1-765): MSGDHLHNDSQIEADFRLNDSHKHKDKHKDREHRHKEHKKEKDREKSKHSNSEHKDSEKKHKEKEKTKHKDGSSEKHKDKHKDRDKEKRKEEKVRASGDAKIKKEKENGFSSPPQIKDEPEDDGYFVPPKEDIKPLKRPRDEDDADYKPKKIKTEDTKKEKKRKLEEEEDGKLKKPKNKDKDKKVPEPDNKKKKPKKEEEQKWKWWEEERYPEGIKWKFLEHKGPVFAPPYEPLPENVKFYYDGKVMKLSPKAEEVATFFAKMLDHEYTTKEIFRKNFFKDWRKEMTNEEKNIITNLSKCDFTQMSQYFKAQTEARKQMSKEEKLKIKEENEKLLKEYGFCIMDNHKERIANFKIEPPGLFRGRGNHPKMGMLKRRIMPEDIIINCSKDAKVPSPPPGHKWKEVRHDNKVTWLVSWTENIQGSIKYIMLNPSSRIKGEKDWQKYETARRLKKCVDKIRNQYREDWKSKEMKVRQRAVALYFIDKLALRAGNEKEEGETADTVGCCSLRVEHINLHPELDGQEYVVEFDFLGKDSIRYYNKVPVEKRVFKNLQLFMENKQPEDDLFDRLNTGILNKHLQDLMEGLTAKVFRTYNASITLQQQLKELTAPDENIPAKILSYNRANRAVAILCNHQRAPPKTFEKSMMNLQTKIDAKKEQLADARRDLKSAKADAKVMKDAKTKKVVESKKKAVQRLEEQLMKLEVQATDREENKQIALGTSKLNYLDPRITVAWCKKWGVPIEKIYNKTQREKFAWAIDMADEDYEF
Kind of data set: Relaxation assay of topoisomerase I (supercoiled pBR322). The data set is classed as biochemical. The note with it: five concentrations 5, 10, 25, 50 and 100 μg/mL; read-out: Inhibition of DNA topoisomerase I IC50 (converted). The protocol: as §2

Data set [5] concerns KB (human mouth epidermoid carcinoma). Kind of data set: Cytotoxicity assay, KB cells. The note with it: 72 h, 3 days incubation, by interpolation. It counts as cell-based. Here is the method:
as §1

Data set [6] deals with NCI-H661 (human lung large cell carcinoma). As to the kind of experiment: Cytotoxicity assay, NCI-H661 cells. The data set is classed as cell-based. The note with it: 72 h, 3 days incubation, by interpolation. Here is the method:
as §1

Data set [7] deals with DLD (human colon adenocarcinoma). Kind of data set: Cytotoxicity assay, DLD cells. It counts as cell-based. The note with it: Homo sapiens, 72 h, 3 days incubation, by interpolation. The protocol:
as §1

Data set [8] relates to human tumor cell lines. As to the kind of experiment: Cytotoxicity assay, tumor cell panel (cell line not specified). The following applies: positive control. The data set is classed as cell-based. Here is the method: The cytotoxic activities of compounds against KB (human mouth epidermoid carcinoma), DLD (human colon adenocarcinoma), NCI-H661 (human lung large cell carcinoma), Hepa (human hepatoma), and HepG2/A2 (human hepatoblastoma) cells were assayed by the MTT{3-(4,5-dimethylthiazole-2-yl)-2,5-diphenyltetrazolium bromide} colorimetric assay as previously described. The cells for assay were cultured in RPMI-1640 medium supplemented with […] in an incubator at 37 °C. The cytotoxicity assay depends on the binding of methylene blue to fixed monolayers of cells at pH 8.5, washing the monolayer, and releasing the dye by lowering the pH value. Samples and control standard drugs were prepared at a concentration of 1, 10, 40, and 100 μg/mL. After seeding 2880 cells/well in a 96-well microplate for 3 h, 20 μL of sample or standard agent was placed in each well and incubated at 37 °C for 3 days. After removing the medium from the microplates, the cells were fixed with 10% formaldehyde in 0.9% saline for 30 min, then dyed with 1% (w/v) methylene blue in 0.01 M borate-buffer (100 μL/well) for 30 min. The 96-well plate was dipped into a 0.01 M borate-buffer solution four times in order to remove the dye. Then, 100 μL/well of EtOH-0.1 M HCl (1:1) was added as a dye eluting solvent, and the absorbance was measured on a microtiter plate reader (Dynatech, MR 7000) at a wavelength of 650 nm. […]

Consider `CCCCCCCCCCCCCCCCCCCCn1c2ccccc2c2cc(C3NCCc4c3[nH]c3ccccc43)ccc21` (stereo not drawn) [Compound 17, 1-(9′-Eicosyl-3′-carbazolyl)-1,2,3,4-tetrahydro-β-carboline], for which the IC50 was more than 20 µg/mL in [1]; more than 162 µM in data set [2]; more than 60 µg/mL in data set [3]; more than 162 µM in data set [4]; more than 20 µg/mL in [5]; more than 20 µg/mL in data set [6]. The IC50 in data set [7] is more than 20 µg/mL.

`COc1cccc2c1C(=O)c1c(O)c3c(c(O)c1C2=O)C[C@@](O)(C(=O)CO)C[C@@H]3O[C@H]1C[C@H](N)[C@H](O)[C@H](C)O1` [Doxorubicin] returned a half-maximal inhibitory concentration (IC50) in data set [8] of 0.1 µg/mL (≈ 0.184 µM).

`CCCCCCCCCCCCCCCCn1c2ccccc2c2cc(C3NCCc4c3[nH]c3ccccc43)ccc21` (stereo not drawn) [Compound 15, 1-(9′-Hexadecyl-3′-carbazolyl)-1,2,3,4-tetrahydro-β-carboline] came in with a melting point of 111 to 113 °C. For the same molecule, in data set [1], the IC50 was more than 20 µg/mL. For the same molecule, the half-inhibitory concentration (IC50) in data set [2] is more than 178 µM. This molecule also displayed a half-maximal inhibitory concentration (IC50) in data set [3] of more than 60 µg/mL. Also, in data set [4], the IC50 is more than 178 µM. Moreover, in [5], the IC50 was more than 20 µg/mL. The same molecule returned an IC50 in data set [6] of more than 20 µg/mL. In data set [7], this molecule yielded a half-maximal inhibitory concentration (IC50) of more than 20 µg/mL.

`CCCCCCCCCCCCCCCCn1c2ccccc2c2cc(C3=NCCc4c3[nH]c3ccccc43)ccc21` [Compound 16, 1-(9′-Hexadecyl-3′-carbazolyl)-3,4-dihydro-β-carboline] displayed a melting point of 90 to 92 °C. For the same molecule, the 50% inhibitory concentration (IC50) in [1] is more than 20 µg/mL. The IC50 in [2] was more than 179 µM. The molecule further displayed an IC50 in [3] of more than 60 µg/mL. The concentration for half-maximal inhibition (IC50) in [4] was more than 179 µM. Also, the 50% inhibitory concentration (IC50) in data set [5] is more than 20 µg/mL. The molecule further displayed an IC50 in [6] of more than 20 µg/mL. The 50% inhibitory concentration (IC50) in data set [7] is more than 20 µg/mL.

As for `CCCCCCCCCCCCCCCCCCCCn1c2ccccc2c2cc(C3=NCCc4c3[nH]c3ccccc43)ccc21` [Compound 18, 1-(9′-Eicosyl-3′-carbazolyl)-3,4-dihydro-β-carboline], the melting point was 91 to 93 °C. In addition, the IC50 in data set [1] was more than 20 µg/mL. In addition, in [2] (compared with etoposide), the “inhibition of DNA topoisomerase II (in words)” value was “great activity”. The IC50 in [2] is 9.09 µM. The molecule further displayed an IC50 in data set [3] of more than 60 µg/mL. Also, the concentration for half-maximal inhibition (IC50) in [4] was more than 162 µM. This molecule came in with a half-inhibitory concentration (IC50) in data set [5] of more than 20 µg/mL. The molecule also registered an IC50 in data set [6] of more than 20 µg/mL. This molecule gave a half-inhibitory concentration (IC50) in [7] of more than 20 µg/mL.

`CCCCCCCCCCn1c2ccccc2c2cc(C3=NCCc4c3[nH]c3ccccc43)ccc21` [Compound 14, 1-(9′-Decyl-3′-carbazolyl)-3,4-dihydro-β-carboline] showed a melting point of 78 to 80 °C. The molecule further yielded an IC50 in [1] of more than 20 µg/mL. Further, the IC50 in data set [2] is 39.9 µM. Also, in data set [3], the 50% inhibitory concentration (IC50) is more than 60 µg/mL. For the same molecule, the IC50 in data set [4] is more than 210 µM. In data set [5], this molecule showed an IC50 of more than 20 µg/mL. In [6], this molecule yielded a half-inhibitory concentration (IC50) of more than 20 µg/mL. The IC50 in [7] was more than 20 µg/mL.
